{"source": "patent US20200054633A1", "about": "(priority 2017, published 2020)", "details": "600 mg, OST placebo; N=74", "source_text": "This study followed a randomized, double-blind, placebo-controlled, parallel-group, multicenter design.\nAnalysis set for safety: Safety Set included all subjects who received at least 1 dose of study drug."}
{"smiles": "O=C(O)[C@H]1C2CCC(CC2)[C@@H]1Nc1nc(-c2c[nH]c3ncc(F)cc23)ncc1F", "note": "[Compound (1), Pimodivir]", "values": [{"measurement": "Any TEAE", "result": "39 (52.7%)"}, {"measurement": "Any TEAE at least possibly related to study medication", "result": "26 (35.1%)"}, {"measurement": "Any TEAE leading to a temporary stop of study medication", "result": "2 (2.7%)"}, {"measurement": "Any TEAE leading to permanent stop of study medication", "result": "3 (4.1%)"}, {"measurement": "Any TEAE with fatal outcome", "result": 0}, {"measurement": "Grade 3 TEAE: Anaemia", "result": 0}, {"measurement": "Grade 3 TEAE: Balance disorder", "result": 0}, {"measurement": "Grade 3 TEAE: Blood and lymphatic system disorders", "result": "1 (1.4%)"}, {"measurement": "Grade 3 TEAE: Blood creatine phosphokinase increased", "result": "1 (1.4%)"}, {"measurement": "Grade 3 TEAE: Bronchitis", "result": 0}, {"measurement": "Grade 3 TEAE: Constipation", "result": "1 (1.4%)"}, {"measurement": "Grade 3 TEAE: Diarrhoea", "result": "1 (1.4%)"}, {"measurement": "Grade 3 TEAE: Fatigue", "result": 0}, {"measurement": "Grade 3 TEAE: Gastrointestinal disorders", "result": "2 (2.7%)"}, {"measurement": "Grade 3 TEAE: General disorders and administration site conditions", "result": 0}, {"measurement": "Grade 3 TEAE: Hyperkalaemia", "result": "1 (1.4%)"}, {"measurement": "Grade 3 TEAE: Infections and infestations", "result": 0}, {"measurement": "Grade 3 TEAE: Investigations", "result": "1 (1.4%)"}, {"measurement": "Grade 3 TEAE: Lymphopenia", "result": "1 (1.4%)"}, {"measurement": "Grade 3 TEAE: Metabolism and nutrition disorders", "result": "1 (1.4%)"}, {"measurement": "Grade 3 TEAE: Nausea", "result": 0}, {"measurement": "Grade 3 TEAE: Nervous system disorders", "result": 0}, {"measurement": "Grade 3 TEAE: Neutropenia", "result": 0}, {"measurement": "Grade 3 TEAE: Neutrophil count decreased", "result": 0}, {"measurement": "Grade 3 TEAE: Protein urine present", "result": 0}, {"measurement": "Grade 3 TEAE: Syncope", "result": 0}, {"measurement": "Grade 3 TEAE: Thrombocytopenia", "result": 0}, {"measurement": "Grade 3 TEAE: Vomiting", "result": 0}, {"measurement": "TEAE: Abdominal discomfort", "result": "1 (1.4%) n (%)"}, {"measurement": "TEAE: Abdominal pain", "result": "0 n (%)"}, {"measurement": "TEAE: Abdominal pain upper", "result": "2 (2.7%) n (%)"}, {"measurement": "TEAE: Abdominal tenderness", "result": "0 n (%)"}, {"measurement": "TEAE: Alanine aminotransferase increased", "result": "2 (2.7%) n (%)"}, {"measurement": "TEAE: All events", "result": "39 (52.7%) n (%)"}, {"measurement": "TEAE: Anaemia", "result": "0 n (%)"}, {"measurement": "TEAE: Aphthous stomatitis", "result": "0 n (%)"}, {"measurement": "TEAE: Aspartate aminotransferase increased", "result": "1 (1.4%) n (%)"}, {"measurement": "TEAE: Atrioventricular block first degree", "result": "0 n (%)"}, {"measurement": "TEAE: Back pain", "result": "1 (1.4%) n (%)"}, {"measurement": "TEAE: Bacterial vaginosis", "result": "0 n (%)"}, {"measurement": "TEAE: Balance disorder", "result": "0 n (%)"}, {"measurement": "TEAE: Blood and lymphatic system disorders", "result": "3 (4.1%) n (%)"}, {"measurement": "TEAE: Blood bicarbonate decreased", "result": "0 n (%)"}, {"measurement": "TEAE: Blood bilirubin decreased", "result": "0 n (%)"}, {"measurement": "TEAE: Blood bilirubin increased", "result": "0 n (%)"}, {"measurement": "TEAE: Blood creatine phosphokinase increased", "result": "1 (1.4%) n (%)"}, {"measurement": "TEAE: Blood creatinine increased", "result": "0 n (%)"}, {"measurement": "TEAE: Blood glucose increased", "result": "1 (1.4%) n (%)"}, {"measurement": "TEAE: Blood potassium increased", "result": "1 (1.4%) n (%)"}, {"measurement": "TEAE: Blood pressure diastolic increased", "result": "1 (1.4%) n (%)"}, {"measurement": "TEAE: Blood urine", "result": "0 n (%)"}, {"measurement": "TEAE: Bradycardia", "result": "1 (1.4%) n (%)"}, {"measurement": "TEAE: Bronchitis", "result": "0 n (%)"}, {"measurement": "TEAE: Cardiac disorders", "result": "1 (1.4%) n (%)"}, {"measurement": "TEAE: Constipation", "result": "1 (1.4%) n (%)"}, {"measurement": "TEAE: Contusion", "result": "1 (1.4%) n (%)"}, {"measurement": "TEAE: Cough", "result": "1 (1.4%) n (%)"}, {"measurement": "TEAE: Decreased appetite", "result": "0 n (%)"}, {"measurement": "TEAE: Dehydration", "result": "0 n (%)"}, {"measurement": "TEAE: Diabetes mellitus", "result": "0 n (%)"}, {"measurement": "TEAE: Diarrhoea", "result": "20 (27.0%) n (%)"}, {"measurement": "TEAE: Dizziness", "result": "2 (2.7%) n (%)"}, {"measurement": "TEAE: Dry mouth", "result": "1 (1.4%) n (%)"}, {"measurement": "TEAE: Dry skin", "result": "1 (1.4%) n (%)"}, {"measurement": "TEAE: Dysgeusia", "result": "0 n (%)"}, {"measurement": "TEAE: Dyspepsia", "result": "0 n (%)"}, {"measurement": "TEAE: Dyspnoea", "result": "0 n (%)"}, {"measurement": "TEAE: Dysuria", "result": "0 n (%)"}, {"measurement": "TEAE: Ear and labyrinth disorders", "result": "0 n (%)"}, {"measurement": "TEAE: Ear discomfort", "result": "0 n (%)"}, {"measurement": "TEAE: Ecchymosis", "result": "0 n (%)"}, {"measurement": "TEAE: Electrocardiogram ST segment depression", "result": "0 n (%)"}, {"measurement": "TEAE: Enteritis", "result": "0 n (%)"}, {"measurement": "TEAE: Fatigue", "result": "0 n (%)"}, {"measurement": "TEAE: Fungal infection", "result": "0 n (%)"}, {"measurement": "TEAE: Gamma-glutamyltransferase increased", "result": "1 (1.4%) n (%)"}, {"measurement": "TEAE: Gastrointestinal disorders", "result": "22 (29.7%) n (%)"}, {"measurement": "TEAE: General disorders and administration site conditions", "result": "0 n (%)"}, {"measurement": "TEAE: Glomerular filtration rate decreased", "result": "1 (1.4%) n (%)"}, {"measurement": "TEAE: Gout", "result": "0 n (%)"}, {"measurement": "TEAE: HIV antibody positive", "result": "0 n (%)"}, {"measurement": "TEAE: HIV test positive", "result": "0 n (%)"}, {"measurement": "TEAE: Haematuria", "result": "0 n (%)"}, {"measurement": "TEAE: Haemoglobin decreased", "result": "0 n (%)"}, {"measurement": "TEAE: Haemoglobin increased", "result": "0 n (%)"}, {"measurement": "TEAE: Headache", "result": "1 (1.4%) n (%)"}, {"measurement": "TEAE: Hepatic enzyme increased", "result": "1 (1.4%) n (%)"}, {"measurement": "TEAE: Hepatitis C", "result": "0 n (%)"}, {"measurement": "TEAE: Herpes simplex", "result": "0 n (%)"}]}
